In PMC12670405, “Second-Generation AURKA-Targeting PROTACs: Structural Optimization toward in Vivo Degradation in Neuroblastoma” (Journal of Medicinal Chemistry, 2025):

Molecular target: T1, AURKA (Homo sapiens, UniProt O14965)
T1 sequence (O14965 1-403): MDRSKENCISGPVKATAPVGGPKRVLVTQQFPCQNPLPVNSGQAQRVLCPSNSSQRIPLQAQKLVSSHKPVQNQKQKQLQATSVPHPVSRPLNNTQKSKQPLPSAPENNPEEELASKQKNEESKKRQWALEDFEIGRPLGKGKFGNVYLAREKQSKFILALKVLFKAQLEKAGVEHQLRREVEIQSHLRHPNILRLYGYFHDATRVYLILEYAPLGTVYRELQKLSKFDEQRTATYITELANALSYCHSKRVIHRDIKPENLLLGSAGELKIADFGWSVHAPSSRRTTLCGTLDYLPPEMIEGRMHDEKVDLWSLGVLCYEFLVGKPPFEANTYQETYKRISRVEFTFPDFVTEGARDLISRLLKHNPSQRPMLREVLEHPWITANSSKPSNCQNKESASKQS
Test: In vivo pharmacodynamics study, IMR-32 cell line-derived xenograft, Western blot
Parameters: from tissue; host or cells: IMR-32 cell line-derived xenograft tumours, BALB/c nude mice; species or system BALB/c nude mice
Details: for AURKA protein reduction in tumor (in words): single IP dose 15 mg/kg; for AURKA protein levels in tumor (in words): single IV dose 15 mg/kg
Description: Protein lysates were denatured through addition of Laemmli buffer supplemented with β-mercaptoethanol (Sigma-Aldrich, #M6250) heated at 95 °C for 10 min. […] The ladder used was the PageRuler Prestained Protein Ladder (Thermo Fisher Scientific, #26617). Afterward, proteins were blotted on nitrocellulose membranes (Bio-Rad, #162-0233) by running at 100 V for 1 h with a buffer containing 10% 10× Tris/glycine (Bio-Rad, #161-0771) and 20% methanol (Thermo Fisher Scientific, #0390D). Ponceau staining was used for confirmation of protein transfer. Membranes were blocked in 5% milk/TBST or 5% BSA/TBST for 1 h at room temperature and subsequently incubated with primary antibodies overnight at 4 °C. Blots were washed 3× for 5 min each with TBST prior to incubation with secondary antibodies for 1 h at room temperature. Visualization of the blots was done using WestDura or WestFemto (Thermo Fisher Scientific, #34096, #34076) with the Amersham Imager 680 (BIOKÉ). Blots were stripped using the Restore Stripping Buffer (Thermo Fisher Scientific, #21059) prior to detection of additional proteins. Images were compiled and quantified using Sciugo (https://sciugo.com/). Per lane, quantified data were always normalized to that of the loading control (Vinculin or GAPDH), prior to calculating fold changes. Mean fold changes are calculated from 3 individual experiments. A list of the primary and secondary antibodies used can be found in the Supporting Information (Supplementary Table S7).
Both the in vivo pharmacokinetics and in vivo pharmacodynamics studies were performed by Eurofins Pharmacology Discovery Services. All mice were provided by BioLasco Taiwan (under Charles River Laboratories Licensee). Animals were acclimated for 3 days prior to use and were confirmed to be in good health. All aspects of this work including housing, experimentation, and animal disposal were performed in general accordance with the “Guide for the Care and Use of Laboratory Animals: Eighth Edition” (National Academies Press, Washington, DC. 2011) in a AAALAC-accredited laboratory animal facility. In addition, the animal care and use protocol was reviewed and approved by the IACUC at Eurofins Pharmacology Discovery Services; IN020-08202020 and ON002-07142023.
Six-week old female BALB/c nude mice were subcutaneously implanted with viable IMR-32 cells formulated in 50% Matrigel into the right flank (1 × 10^7 cells/mouse, in 0.2 mL volume). Palpable tumor volumes were measured with a caliper and calculated according to the prolate ellipsoid formula: tumor volume = length × width^2 × 0.5. When the mean tumor volume reached ∼250 mm^3, animals were randomized into groups (0, 4, 8, 24 h) with 3 animals per group. […] Other groups were given a single IV or IP administration of SK5527 or SK4454 at 15 mg/kg (dissolved in 5% DMSO/5% Solutol HS15/90% PBS). Tumors were subsequently harvested at the respective time points, snap-frozen in liquid nitrogen, and kept frozen at −70 °C until further processing. Upon receipt of the samples in our lab, we mechanically digested and lysed tumor pieces by adding cold RIPA lysis buffer (with protease and phosphatase inhibitors as previously described) and Stainless Steel Beads (Qiagen, #69989) followed by shaking for 2 min (twice) using TissueLyser II (Qiagen). Afterward, samples were centrifuged for 20 min (10,000 rpm, 4 °C). The supernatant was then collected and the concentration of the obtained protein lysates was measured using the Pierce BCA Protein Assay Kit (Thermo Fisher Scientific, #23227). Western blot was performed as previously described to visualize changes in AURKA protein levels.

Row | Structure (SMILES) | AURKA protein reduction in tumor (in words) | AURKA protein levels in tumor (in words) (4 and 8 h post-treatment) | AURKA protein levels in tumor (in words) (24 h)
1 | Cc1cc(Nc2ccc(F)c(CC3(C(=O)N4CCC(CN5CCN(c6ccc(N7CCC(=O)NC7=O)cn6)CC5)CC4)CCN(Cc4cccc(Cl)c4F)CC3)n2)n[nH]1 [SK4454] | not observed | strongly reduced AURKA protein levels | return to baseline levels
2 | Cc1cc(Nc2ccc(F)c(CC3(C(=O)N4CCC(F)(CN5CCN(c6ccc(N7CCC(=O)NC7=O)cn6)CC5)CC4)CCN(Cc4cccc(Cl)c4F)CC3)n2)n[nH]1 [SK5527] | not observed | strongly reduced AURKA protein levels | return to baseline levels
